Laboratory results as given in ChEMBL document CHEMBL1156528, “Acetyl-lysine analog peptides as mechanistic probes of protein deacetylases” (J Biol Chem, 2007).

Target: NAD-dependent protein deacetylase HST2 (Saccharomyces cerevisiae S288c) (UniProt P53686)
Assay: Ratio of Vmax to Km for Saccharomyces cerevisiae Hst2

Chain of NAD-dependent protein deacetylase HST2 (Saccharomyces cerevisiae S288c) (P53686 whole entry): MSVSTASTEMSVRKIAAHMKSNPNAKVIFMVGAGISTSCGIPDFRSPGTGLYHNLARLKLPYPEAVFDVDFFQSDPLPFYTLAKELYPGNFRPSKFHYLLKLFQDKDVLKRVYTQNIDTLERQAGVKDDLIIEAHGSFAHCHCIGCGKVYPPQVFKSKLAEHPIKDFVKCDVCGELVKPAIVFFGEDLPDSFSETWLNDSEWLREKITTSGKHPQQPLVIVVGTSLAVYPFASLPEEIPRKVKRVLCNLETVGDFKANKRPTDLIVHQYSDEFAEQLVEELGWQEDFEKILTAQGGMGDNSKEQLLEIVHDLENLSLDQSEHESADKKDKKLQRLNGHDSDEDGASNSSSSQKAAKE

C[C@H](NC(=O)[C@H](CCCCNC(N)=O)NC(=O)CNC(=O)CNC(=O)[C@@H](NC(=O)[C@H](CO)NC(=O)[C@@H](N)CCCCN)[C@@H](C)O)C(=O)N1CCC[C@H]1C(=O)N[C@@H](CCCNC(=N)N)C(=O)N[C@@H](CCCCN)C(=O)N[C@@H](CCC(N)=O)C(=O)O
Ratio: 7.4 ×10³ /M/s
